Measurements reported in ChEMBL document CHEMBL3885861, “Open TG-GATES”.

Species on record: Rattus norvegicus
Assay: Open TG-GATES - Regimen: Single
Assay type: toxicity, organism-based, Sprague-Dawley
Parameters: regimen Single, gender Male, age 6 weeks
Settings: in vivo, po, 300 mg/kg, route gavage, dose level Low; for APTT / Bas / Eos / Fbg / Hb / Ht / Lym / MCH / MCHC / MCV / Mono / Neu / PT / Plat / RBC / Ret / WBC: tissue Blood; for KIDNEY_L / KIDNEY_R / KIDNEY_TOTAL: tissue Kidney; for LIVER: tissue Liver; for A/G / ALP / ALT / AST / BUN / CRE / Ca / Cl / DBIL / GLC / IP / K / LDH / Na / PL / RALB / TBIL / TC / TG / TP / gamma-GTP: tissue Plasma

## CCN1CCCC1CNC(=O)c1cc(S(N)(=O)=O)ccc1OC (configuration not stated) [SULPIRIDE]
3 h
  TERMINAL_BW: 202.3 g
  APTT: 16.9 s
  Bas: 0%
  Eos: 0.8%
  Fbg: 268.2 mg/dL
  Hb: 12.9 g/dL
  Ht: 40.1%
  Lym: 83%
  MCH: 20.5 pg
  MCHC: 32.3%
  MCV: 63.3 fL
  Mono: 2.6%
  Neu: 12.6%
  PT: 13.5 s
  Plat: 123.5 x10_4/uL
  RBC: 633 x10_4/ul
  Ret: 8.1%
  WBC: 80.2 x10_2/uL
  KIDNEY_L: 0.9 g
  KIDNEY_R: 0.9 g
  KIDNEY_TOTAL: 1.9 g
  LIVER: 9.4 g
  A/G: 0.9
  ALP: 1455.4 IU/L
  ALT: 35.6 IU/L
  AST: 72.8 IU/L
  BUN: 9.8 mg/dL
  CRE: 0.2 mg/dL
  Ca: 11.1 mg/dL
  Cl: 105.8 meq/L
  DBIL: 0.004 mg/dL
  GLC: 173 mg/dL
  IP: 8.2 mg/dL
  K: 4.2 meq/L
  LDH: 124.4 IU/L
  Na: 141.6 meq/L
  PL: 143.4 mg/dL
  RALB: 2.5 g/dL
  TBIL: 0.062 mg/dL
  TC: 77.8 mg/dL
  TG: 74.2 mg/dL
  TP: 5.2 g/dL
  gamma-GTP: 1.6 IU/L
6 h
  TERMINAL_BW: 199.9 g
  APTT: 16.7 s
  Bas: 0%
  Eos: 1%
  Fbg: 287.4 mg/dL
  Hb: 13.1 g/dL
  Ht: 41.1%
  Lym: 78%
  MCH: 20.5 pg
  MCHC: 31.9%
  MCV: 64.2 fL
  Mono: 2.8%
  Neu: 17.4%
  PT: 13.5 s
  Plat: 122.9 x10_4/uL
  RBC: 641.2 x10_4/ul
  Ret: 8.4%
  WBC: 95.5 x10_2/uL
  KIDNEY_L: 0.9 g
  KIDNEY_R: 0.9 g
  KIDNEY_TOTAL: 1.8 g
  LIVER: 8.9 g
  A/G: 0.9
  ALP: 1332.4 IU/L
  ALT: 36.4 IU/L
  AST: 68.4 IU/L
  BUN: 9.6 mg/dL
  CRE: 0.2 mg/dL
  Ca: 11 mg/dL
  Cl: 104.8 meq/L
  DBIL: 0.01 mg/dL
  GLC: 179.4 mg/dL
  IP: 9.4 mg/dL
  K: 4.3 meq/L
  LDH: 125.8 IU/L
  Na: 141.2 meq/L
  PL: 137.6 mg/dL
  RALB: 2.5 g/dL
  TBIL: 0.074 mg/dL
  TC: 75.4 mg/dL
  TG: 59 mg/dL
  TP: 5.2 g/dL
  gamma-GTP: 1.2 IU/L
9 h
  TERMINAL_BW: 198.2 g
  APTT: 16.3 s
  Bas: 0.2%
  Eos: 0.8%
  Fbg: 287.2 mg/dL
  Hb: 13.3 g/dL
  Ht: 41%
  Lym: 77.4%
  MCH: 20.6 pg
  MCHC: 32.3%
  MCV: 63.7 fL
  Mono: 2.4%
  Neu: 19%
  PT: 13.4 s
  Plat: 129.5 x10_4/uL
  RBC: 644.4 x10_4/ul
  Ret: 7.6%
  WBC: 83.6 x10_2/uL
  KIDNEY_L: 0.9 g
  KIDNEY_R: 0.9 g
  KIDNEY_TOTAL: 1.8 g
  LIVER: 7.7 g
  A/G: 0.9
  ALP: 1287.4 IU/L
  ALT: 34.4 IU/L
  AST: 70.4 IU/L
  BUN: 7.4 mg/dL
  CRE: 0.1 mg/dL
  Ca: 10.4 mg/dL
  Cl: 106.8 meq/L
  DBIL: 0 mg/dL
  GLC: 168.4 mg/dL
  IP: 9.9 mg/dL
  K: 3.7 meq/L
  LDH: 116.4 IU/L
  Na: 142.6 meq/L
  PL: 118.4 mg/dL
  RALB: 2.5 g/dL
  TBIL: 0.07 mg/dL
  TC: 70 mg/dL
  TG: 29.8 mg/dL
  TP: 5.2 g/dL
  gamma-GTP: 1.2 IU/L
24 h
  TERMINAL_BW: 215.3 g
  APTT: 17.5 s
  Bas: 0.2%
  Eos: 1%
  Fbg: 305 mg/dL
  Hb: 13.5 g/dL
  Ht: 41.4%
  Lym: 78%
  MCH: 20.9 pg
  MCHC: 32.6%
  MCV: 64.1 fL
  Mono: 2.6%
  Neu: 17.4%
  PT: 12.7 s
  Plat: 130.7 x10_4/uL
  RBC: 646 x10_4/ul
  Ret: 7%
  WBC: 93.3 x10_2/uL
  KIDNEY_L: 0.9 g
  KIDNEY_R: 0.9 g
  KIDNEY_TOTAL: 1.8 g
  LIVER: 9.9 g
  A/G: 0.9
  ALP: 1728.6 IU/L
  ALT: 44.2 IU/L
  AST: 66.4 IU/L
  BUN: 14.8 mg/dL
  CRE: 0.2 mg/dL
  Ca: 11.1 mg/dL
  Cl: 106.4 meq/L
  DBIL: 0.014 mg/dL
  GLC: 180.4 mg/dL
  IP: 7.4 mg/dL
  K: 4.4 meq/L
  LDH: 179.2 IU/L
  Na: 141.6 meq/L
  PL: 156.2 mg/dL
  RALB: 2.7 g/dL
  TBIL: 0.064 mg/dL
  TC: 79.2 mg/dL
  TG: 134.4 mg/dL
  TP: 5.7 g/dL
  gamma-GTP: 1 IU/L
